In publication PMC12040169 (PLOS Biology, 2025):

experiment: in vitro; details: human, hela cells, % viability

Point of comparison: `Cc1ccc(C(=O)Nc2cccc(-c3ccc4nnc(C)n4n3)c2)cc1` [CBK287683], viability at 28.5 h, 10 µM 82.8%. Against it:
- O=C(Nc1nnc(-c2ccccc2)o1)c1nc2ccccc2s1 [CBK287595] — higher, 91.2%
- O=C(Nc1nnc(-c2ccccc2)o1)C1COc2ccccc2O1 (centres unmarked) [CBK287596] — higher, 103%
- O=C(Cc1ccccc1)Nc1nnc(-c2ccccc2)o1 [CBK287597] — higher, 95.4%
- O=C(Nc1nnc(-c2cccs2)o1)c1ccc(Cl)cc1 [CBK287600] — higher, 96.4%
- Cc1ccc(Cn2ncc3c(N4CCCC4)ncnc32)cc1 [CBK287601] — lower, 72.5%
- CC(=O)Nc1nc2ccc(S(=O)(=O)N3CCCC3)cc2s1 [CBK287604] — higher, 98.8%
- CCn1c(=N)c(C(=O)NCCOC)cc2c(=O)n3ccccc3nc21 [CBK287605] — higher, 89.5%
- CCCSc1nc2c(c(=O)[nH]1)C(c1ccncc1)C1=C(CCCC1=O)N2 (centres unmarked) [CBK287606] — higher, 106%
- Cn1c(SCC(=O)NCCCN2CCOCC2)nc2ccccc2c1=O [CBK287607] — higher, 109%
- Nc1ccc(C(=O)Nc2nc3ccccc3s2)cc1 [CBK287608] — higher, 95.9%
- Cc1c(C(=O)O)sc2nc(SCC(=O)NCc3ccccc3)[nH]c(=O)c12 [CBK287609] — higher, 94.2%
- Oc1c(C(c2ccccc2)N2CCc3ccccc3C2)sc2ncnn12 (centres unmarked) [CBK287612] — higher, 99.9%
- CCSc1nc(N)c(NC(=O)c2ccco2)c(=O)[nH]1 [CBK287613] — higher, 92.4%
- COc1ccc(C(=O)Nc2nc3c(OC)ccc(C)c3s2)cc1 [CBK287615] — higher, 110%
- CCC(=O)Nc1nc2c(OC)ccc(C)c2s1 [CBK287616] — higher, 110%
- CC(=O)Nc1nc2cc3c(cc2s1)OCCO3 [CBK287618] — higher, 96.2%
- O=C(Nc1nc2c(Br)cccc2s1)c1nc2ccccc2s1 [CBK287619] — higher, 92.2%
- Cc1cc(NC(=O)CN2CC(C)CC(C)C2)nc2c1c(=O)oc1ccccc12 (centres unmarked) [CBK287620] — higher, 108%
- O=C(CSc1ccc2nnc(-c3cccnc3)n2n1)c1ccccc1 [CBK287624] — higher, 100%
- c1ccc(CSc2ccc3nnc(-c4ccncc4)n3n2)cc1 [CBK287625] — higher, 94.4%
- NC(=O)CSc1nnc(NC(=O)c2ccccc2Cl)s1 [CBK287629] — higher, 89.9%
- Cc1ccc(S(=O)(=O)NCCc2cn3ccc(C)cc3n2)cc1 [CBK287630] — higher, 103%
- Cc1cccc(-c2nc(C(N)=O)c3[nH]c(=O)n(-c4ccc(F)cc4)c3n2)c1 [CBK287632] — higher, 111%
- CNC(=O)CSc1ncnc2c1cnn2-c1ccc(F)cc1 [CBK287633] — higher, 94.4%
- COc1ccc(-c2ccc(SCC(=O)Nc3cc(C)on3)nn2)cc1 [CBK287634] — higher, 88.7%
- O=C(CSc1ccc(-n2ccnc2)nn1)Nc1cccnc1 [CBK287635] — higher, 97.6%
- COc1ccc(OC)c(NC(=O)CSc2ccc(-c3ccncc3)nn2)c1 [CBK287637] — higher, 86.6%
- Cc1ccc2nc(N(CCCN(C)C)C(=O)c3ccco3)sc2c1 [CBK287639] — higher, 114%
- CN(C)CCCN(C(=O)c1ccccc1)c1nc2ccc(F)cc2s1 [CBK287640] — higher, 97.4%
- COc1ccc2sc(Nc3ccc(F)cc3)nc2c1 [CBK287641] — higher, 95.3%
- COc1ccc(N2CC(NC(=O)Nc3ccccn3)CC2=O)cc1 (centres unmarked) [CBK287642] — higher, 96.9%
- CCN1CCc2nc(NC(=O)c3ccc(Cl)cc3)sc2C1 [CBK287644] — higher, 86.3%
- Cc1cc(N)n(-c2nc3c(cnn3-c3ccc(C)c(C)c3)c(=O)[nH]2)n1 [CBK287646] — higher, 97.8%
- Cc1ccccc1-n1ncc2c(N3CCCC3)ncnc21 [CBK287648] — higher, 99.2%
- COc1ccc(NC(=O)Cc2csc(NC(C)=O)n2)cc1 [CBK287650] — higher, 93.3%
- Cc1ccc(-n2c(=O)[nH]c3c(C(=O)Nc4ccccc4)cn(C)c3c2=O)cc1 [CBK287651] — higher, 93.9%
- COc1ccc(C(=O)c2oc3cc(NC(=O)c4cccnc4)ccc3c2C)cc1 [CBK287652] — higher, 85.1%
- Cc1cc(O)nc(-n2nc(C)cc2NC(=O)c2ccccc2)n1 [CBK287653] — higher, 101%
- Cc1cc(=O)[nH]c(-n2nc(C)cc2NC(=O)c2ccccc2C)n1 [CBK287654] — higher, 92.5%
- CS(=O)(=O)N1CCC2(CC1)NC(=O)N(Cc1ccccc1)C2=O [CBK287656] — higher, 100%
- COCC(=O)Nc1ccc2c(c1)NC(=O)C(C)(C)CO2 [CBK287658] — higher, 89%
- COc1cccc2cc(C(=O)Nc3cccc(C)n3)oc12 [CBK287659] — higher, 94.5%
- Cc1ccc(OCC(=O)Nc2ccc3c(c2)C(=O)Nc2ccccc2O3)cc1 [CBK287660] — higher, 88.2%
- Cn1c(SCC(=O)c2ccc(F)cc2)ncc(C(=O)Nc2ccccc2)c1=O [CBK287672] — higher, 111%
- Cc1ccc(NC(=O)c2cnc(SCc3ccccn3)n(C)c2=O)cc1 [CBK287673] — higher, 92.9%
- Cc1ccc(NC(=O)CSc2nc3[nH]ncc3c(=O)[nH]2)cc1 [CBK287675] — higher, 93.5%
- O=C(CSc1nnc2ccc(-c3ccccc3)nn12)Nc1ccc(F)cc1 [CBK287676] — higher, 91.5%
- O=C(CSc1nnc2ccc(-c3ccccc3)nn12)NCc1ccccc1 [CBK287677] — lower, 67.6%
- c1ccc(CSc2nnc3ccc(-c4ccncc4)nn23)cc1 [CBK287681] — higher, 86.5%
- CCCc1cc(=O)[nH]c2nnc(SCC(=O)NC)n12 [CBK287685] — higher, 95.3%
- Cc1c(C)n2c(SCC(=O)N3CCCC3)nnc2[nH]c1=O [CBK287686] — higher, 99.4%
- CNC(=O)CSc1nnc2[nH]c(=O)c(C)c(C)n12 [CBK287687] — higher, 108%
- Cc1ccccc1-n1ncc2c(=O)n(CC(=O)N3CCCCC3)cnc21 [CBK287688] — higher, 108%
- Cc1ccccc1-n1ncc2c(=O)n(CC(=O)Nc3ccccc3)cnc21 [CBK287689] — higher, 98.4%
- CC(=O)Cn1cnc2c(cnn2-c2cccc(Cl)c2)c1=O [CBK287692] — higher, 84.4%
- Cc1cccc(-n2ncc3c(=O)n(CC(=O)Nc4ccccc4)cnc32)c1C [CBK287693] — higher, 95.1%
- COc1cc(-c2nnc(NC(C)=O)o2)cc(OC)c1OC [CBK287698] — higher, 95.2%
- COc1cc2nc(NC(=O)c3ccccc3)sc2cc1OC [CBK287701] — lower, 82.3%
- O=c1[nH]cc(S(=O)(=O)Nc2ccccc2)c(=O)[nH]1 [CBK287703] — higher, 93.5%
- CCn1c2c(c(=O)[nH]c1=O)C(c1ccccc1)C1=C(COC1=O)N2 (centres unmarked) [CBK287704] — higher, 95.6%
- Cc1ccc(S(=O)(=O)CC(=O)Nc2nc3ccc(C)cc3s2)cc1 [CBK287705] — higher, 89.8%
- Cc1ccc(S(=O)(=O)CCC(=O)Nc2ccc3sc(C)nc3c2)cc1 [CBK287706] — higher, 99.3%
- COc1ccccc1CNC(=O)c1cnc2sc(C)cn2c1=O [CBK287708] — higher, 104%
- COc1ccc(CCNC(=O)c2cnc3sc(C)cn3c2=O)cc1OC [CBK287709] — higher, 104%
- Cc1cn2c(=O)c(C(=O)Nc3ccccc3C)cnc2s1 [CBK287710] — higher, 94.1%
- Cc1cn2c(=O)c(C(=O)Nc3ccc(F)c(C(F)(F)F)c3)cnc2s1 [CBK287713] — lower, 77.9%
- COc1ccc(C)cc1NC(=O)c1cnc2sc(C)cn2c1=O [CBK287714] — higher, 105%
- CC(=O)Nc1cccc(NC(=O)c2cnc3sc(C)cn3c2=O)c1 [CBK287715] — higher, 92%
- Cc1ccc(-n2c(=O)[nH]c3c(C(N)=O)nc(-c4ccccc4)nc32)cc1C [CBK287718] — higher, 84.7%
- Cc1cc(SCc2ccc(Cl)cc2)nc(=O)[nH]1 [CBK287719] — higher, 90.8%
- O=C(CN1CCC(c2nc3ccccc3[nH]2)CC1)Nc1ccc(F)cc1 [CBK287720] — higher, 90%
- CCS(=O)(=O)c1ccc(C(=O)Nc2nc3c(F)cc(F)cc3s2)cc1 [CBK287727] — higher, 106%
- O=C(NCc1cccnc1)C(=O)Nc1cc2c3c(c1)CCC(=O)N3CCC2 [CBK287728] — higher, 92%
- Cc1cc(O)c(C(=O)Nc2cccc(Cl)c2)c(=O)n1Cc1ccccn1 [CBK287729] — higher, 99.3%
- O=C(COc1cccc2c1CCNC2=O)Nc1ccccc1 [CBK287730] — higher, 89%
- Cc1ccc(NC(=O)N2CCn3cccc3C2c2cccnc2)cc1 (centres unmarked) [CBK287733] — higher, 87.1%
- Cc1ccc(CNC(=O)CSc2nc(C)c(C)c(=O)[nH]2)cc1 [CBK287735] — higher, 92.8%
- CCc1nc(C(N)=O)c2[nH]c(=O)n(-c3ccccc3F)c2n1 [CBK287739] — higher, 107%
- Cn1c(=O)c(C(=O)Nc2ccc(Cl)cc2)cc2cccnc21 [CBK287741] — higher, 94.4%
- COc1ccc(C(=O)Nc2nnc(-c3ccc(OC)c(OC)c3)o2)cc1OC [CBK287745] — higher, 93.7%
- COc1cccc2c1OC(c1cccnc1)N1N=C(c3cccc(O)c3)CC21 (centres unmarked) [CBK287747] — higher, 104%
- CCSc1ccnc2c1c(=O)n(C)c(=O)n2C [CBK287749] — higher, 98.9%
- CC1CCc2c(sc(NC(=O)c3ccno3)c2C(N)=O)C1 (centres unmarked) [CBK287752] — higher, 85.4%
- CC(=O)N1CCN(c2ncnc3c2nnn3-c2ccccc2)CC1 [CBK287753] — higher, 92.9%
- O=C(c1ccco1)N(CCCn1ccnc1)c1nc2c(F)cccc2s1 [CBK287758] — higher, 86.4%
- O=C(Cn1ncn2nc(-c3ccccc3)cc2c1=O)Nc1ccc(F)cc1 [CBK287759] — higher, 85.8%
- Cc1ccc(N2C(=O)CC(Sc3ncccc3C(=O)O)C2=O)cc1 (centres unmarked) [CBK287761] — higher, 87.7%
- CCNC(=O)c1cc2c(=O)n3ccccc3nc2n(C)c1=N [CBK287762] — higher, 90.7%
- CCOc1ccc(-c2csc(NC(=O)CC)n2)cc1 [CBK287764] — higher, 92.5%
- Cc1ccc(-c2csc3ncnc(Cl)c23)cc1 [CBK287765] — lower, 74.7%
- COc1ccc2oc(-c3ccccc3)c(C(=O)Nc3nccs3)c2c1 [CBK287767] — lower, 71.8%
